The text below walks through data of patent US8716326B2, “Isoindolinone derivatives, preparation method thereof and a pharmaceutical composition comprising same” (Korea Research Institute of Chemical Technology, priority 2009, dated 2014).

This assay deals with Runx2. As to the kind of experiment: Runx2 activity, 6xOSE2-Luc luciferase reporter in transfected C2C12 cells. Format: cell-based, Mouse. As to conditions: 24 hrs; for fold induction at 2.5 µM / fold induction at 5 µM / fold induction at 10 µM / fold induction at 20 µM: Mus musculus, read-out: luciferase activity relative to control set as 1. The method in brief:
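Compound exposure of 24 h at 2.5, 5.0, 10 and 20 μM, in 5% FBS DMEM, was applied to transfected C2C12 cells with an OSE2 hexamer-driven luciferase construct reporting Runx2 activity. Read-out: dual-luciferase signal in cell lysates, normalised to equal-volume DMSO control (=1).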

Consider `N#Cc1ccc(-c2ccc3c(c2)CN(Cc2ccc(C(=O)Nc4ccccc4N)cc2)C3=O)cc1` [Example 65, N-(2-aminophenyl)-4-[5-(4-cyanophenyl)-1-oxo-2,3-dihydro-1H-isoindol-2-yl]methylbenzamide], for which the fold induction at 2.5 µM (2.5 μM) was found to be 12.9. For the same compound, where the note is “5.0 μM”, the fold induction at 5 µM amounted to 15.7. For the same compound, for the setting “10 μM”, the fold induction at 10 µM was determined as 13.5. In addition, the fold induction at 20 µM (20 μM) came to 11.4.
The matching figures for `Nc1ccccc1NC(=O)c1ccc(CN2Cc3cc(-c4ccc5c(c4)OCO5)ccc3C2=O)cc1` [Example 66, N-(2-aminophenyl)-4-((5-(benzo[d][1,3]dioxol-6-yl)-1-oxoisoindolin-2-yl)methyl)benzamide]: 14.2, 9.4, 7.2 and 7.2.
Taken in the same sequence, the figures for `Nc1ccccc1NC(=O)c1ccc(CN2Cc3cc(-c4ccc5ccccc5c4)ccc3C2=O)cc1` [Example 67, N-(2-aminophenyl)-4-((5-(naphthalen-2-yl)-1-oxoisoindolin-2-yl)methyl)benzamide] were 1.4, 2, 2.9 and 6.1.
For `Cc1c(Br)cccc1C(=O)NCc1ccc(C(=O)Nc2ccccc2N)cc1` [Example 68, N-(2-aminophenyl)-4-((3-bromo-2-methylbenzamido)methyl)benzamide], the fold induction at 2.5 µM (2.5 μM) was 9. For the setting “5.0 μM”, the fold induction at 5 µM was determined as 10.1. Further, the fold induction at 10 µM (10 μM) came to 12.8. Besides, the fold induction at 20 µM (20 μM) amounted to 15.6.
The matching figures for `Cc1c(C(=O)NCc2ccc(C(=O)Nc3ccccc3N)cc2)cccc1-c1ccccc1` [Example 69, N-(2-aminophenyl)-4-((2-methyl-3-phenyl-benzamido)methyl)benzamide]: 13.5, 22, 29.2 and 30.6.
Taken in the same sequence, the figures for `Cc1c(C(=O)NCc2ccc(C(=O)Nc3ccccc3N)cc2)cccc1-c1cncnc1` [Example 70, N-(2-aminophenyl)-4-((2-methyl-3-(5-pyrimidinyl)benzamido)methyl)benzamide] were 8.9, 20.6, 30.1 and 40.2.
Taken in the same sequence, the figures for `Cc1c(C(=O)NCc2ccc(C(=O)Nc3ccccc3N)cc2)cccc1-c1cccnc1` [Example 71, N-(2-aminophenyl)-4-((2-methyl-3-(3-pyridinyl)benzamido)methyl)benzamide] were 18.7, 34.8, 36.5 and 32.7.
In the case of `Cc1c(C(=O)NCc2ccc(C(=O)Nc3ccccc3N)cc2)cccc1-c1cccc(N)c1` [Example 72, N-(2-aminophenyl)-4-((2-methyl-3-(3-aminophenyl)benzmido)methyl)benzamide], the “luciferase activity relative to control set as 1” value is 17.6 fold (2.5 μM), 29.8 fold (5.0 μM), 29.6 fold (10 μM) and 31.4 fold (20 μM).
As for `COc1cc(C(=O)NCc2ccc(C(=O)Nc3ccccc3N)cc2)c(C)c(Br)c1OC` [Example 73, N-(2-aminophenyl)-4-((3-bromo-4,5-dimethoxy-2-methylbenzamido)methyl)benzamide], the fold induction at 2.5 µM (2.5 μM) stood at 24.2. Besides, under “5.0 μM”, the fold induction at 5 µM is 32.3. The fold induction at 10 µM (10 μM) amounted to 30.8. Where the note is “20 μM”, the fold induction at 20 µM is 25.9.
As to `COc1cc(C(=O)NCc2ccc(C(=O)Nc3ccccc3N)cc2)c(C)c(-c2ccccc2)c1OC` [Example 74, N-(2-aminophenyl)-4-((2-methyl-3-phenyl-4,5-dimethoxy-benzamido)methyl)benzamide], the fold induction at 2.5 µM (2.5 μM) is 25.1. Further, the fold induction at 5 µM (5.0 μM) was determined as 31.1. Under “10 μM”, the fold induction at 10 µM was determined as 38.5. For the same compound, the fold induction at 20 µM (20 μM) was determined as 38.9.
Taken in the same sequence, the figures for `COc1cc(C(=O)NCc2ccc(C(=O)Nc3ccccc3N)cc2)c(C)c(-c2cncnc2)c1OC` [Example 75, N-(2-aminophenyl)-4-((2-methyl-4,5-dimethoxy-3-(5-pyrimidinyl)-benzamido)methyl)benzamide] were 2.5, 4.7, 12.4 and 27.8.
As for `COc1cc(C(=O)NCc2ccc(C(=O)Nc3ccccc3N)cc2)c(C)c(-c2cccnc2)c1OC` [Example 76, N-(2-aminophenyl)-4-((2-methyl-3-(3-pyridinyl)-4,5-dimethoxy-benzamido)methyl)benzamide], under “2.5 μM”, the fold induction at 2.5 µM turned out to be 4.5. In addition, the fold induction at 5 µM (5.0 μM) was 8.5. Where the note is “10 μM”, the fold induction at 10 µM was 20.8. Besides, the fold induction at 20 µM (20 μM) is 32.9.
For the compound `COc1cc(C(=O)NCc2ccc(C(=O)Nc3ccccc3N)cc2)c(C)c(-c2cccc(N)c2)c1OC` [Example 77, N-(2-aminophenyl)-4-((3-(3-aminophenyl)-4,5-dimethoxy-2-methyl-benzamido)methyl)benzamide], the fold induction at 2.5 µM (2.5 μM) came out at 4.9. In addition, the fold induction at 5 µM (5.0 μM) is 11. Further, under “10 μM”, the fold induction at 10 µM was found to be 24.5. For the setting “20 μM”, the fold induction at 20 µM came to 33.5.
Turning to `COc1cc(C(=O)NCc2ccc(C(=O)Nc3ccccc3N)cc2)c(C)c(-c2ccc(C(F)(F)F)cc2)c1OC` [Example 78, N-(2-aminophenyl)-4-((2-methyl-3-(4-trifluoromethylphenyl)-4,5-dimethoxy-benzamido)methyl)benzamide], the fold induction at 2.5 µM (2.5 μM) came out at 6.4. Further, the fold induction at 5 µM (5.0 μM) is 12.8. The fold induction at 10 µM (10 μM) is 19.1. Moreover, the fold induction at 20 µM (20 μM) was found to be 21.1.
Consider `COc1cc(C(=O)NCc2ccc(C(=O)Nc3ccccc3N)cc2)c(C)c(-c2cc(F)cc(F)c2)c1OC` [Example 79, N-(2-aminophenyl)-4-((2-methyl-3-(3,5-difluorophenyl)-4,5-dimethoxy-benzamido)methyl)benzamide], for which, under “2.5 μM”, the fold induction at 2.5 µM turned out to be 13.5. Also, the fold induction at 5 µM (5.0 μM) is 24.4. For the same compound, the fold induction at 10 µM (10 μM) turned out to be 31.3. Besides, where the note is “20 μM”, the fold induction at 20 µM worked out at 31.7.
Taken in the same sequence, the figures for `Cc1c(Br)cccc1C(=O)NCCCCCC(=O)Nc1ccccc1N` [Example 80, N-(5-(2-aminophenylcarbamoyl)pentyl)-3-bromo-2-methylbenzamide] were 0.9, 1.8, 2.7 and 5.4.
The matching figures for `Cc1c(C(=O)NCCCCCC(=O)Nc2ccccc2N)cccc1-c1ccccc1` [Example 81, N-(5-(2-aminophenylcarbamoyl)pentyl)-2-methyl-3-phenyl-benzamide]: 1.6, 3.4, 7.5 and 10.7.
The matching figures for `COc1ccc(-c2cccc(C(=O)NCCCCCC(=O)Nc3ccccc3N)c2C)c(OC)c1` [Example 82, N-(5-(2-aminophenylcarbamoyl)pentyl)-2-methyl-3-(2,4-dimethoxyphenyl)-benzamide]: 1.5, 2.5, 6 and 10.9.
On to `Cc1c(C(=O)NCCCCCC(=O)Nc2ccccc2N)cccc1-c1cccnc1` [Example 83, N-(5-(2-aminophenylcarbamoyl)pentyl)-2-methyl-3-(3-pyridinyl)-benzamide], for which the fold induction at 2.5 µM (2.5 μM) was determined as 1.3. In addition, under “5.0 μM”, the fold induction at 5 µM was 2.1. For the same compound, the fold induction at 10 µM (10 μM) is 5.6. For the same compound, the fold induction at 20 µM (20 μM) is 15.7.
The matching figures for `Cc1c(C(=O)NCCCCCC(=O)Nc2ccccc2N)cccc1-c1ccncc1` [Example 84, N-(5-(2-aminophenylcarbamoyl)pentyl)-2-methyl-3-(4-pyridinyl)-benzamide]: 1.9, 3.3, 7.8 and 17.3.
The matching figures for `Cc1cc(C(=O)NCCCCCC(=O)Nc2ccccc2N)ccc1Br` [Example 85, N-(5-(2-aminophenylcarbamoyl)pentyl)-4-bromo-3-methylbenzamide]: 2.15, 6.7, 13.9 and 14.3.
The matching figures for `Cc1cc(C(=O)NCCCCCC(=O)Nc2ccccc2N)ccc1-c1ccccc1` [Example 86, N-(5-(2-aminophenylcarbamoyl)pentyl)-3-methyl-4-phenyl-benzamide]: 1.2, 1.9, 3.4 and 3.7.
As for `COc1ccc(-c2ccc(C(=O)NCCCCCC(=O)Nc3ccccc3N)cc2C)c(OC)c1` [Example 87, N-(5-(2-aminophenylcarbamoyl)pentyl)-3-methyl-4-(2,4-dimethoxyphenyl)-benzamide], for the setting “2.5 μM”, the fold induction at 2.5 µM is 1.7. For the same compound, the fold induction at 5 µM (5.0 μM) was found to be 2.6. For the same compound, where the note is “10 μM”, the fold induction at 10 µM was determined as 5.6. Further, the fold induction at 20 µM (20 μM) was 8.5.
Consider `Cc1cc(C(=O)NCCCCCC(=O)Nc2ccccc2N)ccc1-c1cccnc1` [Example 88, N-(5-(2-aminophenylcarbamoyl)pentyl)-3-methyl-4-(3-pyridinyl)-benzamide], for which the fold induction at 2.5 µM (2.5 μM) was determined as 6. Also, the fold induction at 5 µM (5.0 μM) amounted to 16.8. In addition, the fold induction at 10 µM (10 μM) was 28.1. Moreover, the fold induction at 20 µM (20 μM) was found to be 41.2.
